From patent US9663514B2 (Takeda Pharmaceutical Company Limited, priority 2011, dated 2017)

Target: T1, SYK (Homo sapiens, UniProt P43405)
T1 construct: The SYK kinase domain (residues 356-635) is amplified via PCR; made in house; host or cells: Sf9 insect cells (baculovirus, pFastBac1)
Assay: SYK inhibition: in vitro assay of SYK-mediated phosphorylation of FAM-labeled substrate (Caliper LC-3000)
Assay type: biochemical
Conditions: SYK kinase domain (residues 356-635); 2.4 nM SYK and 45 μM ATP, 3 μM 5FAM-KKKKEEIYFFFG-NH2, RT 60 min, pH 7.3; pIC50 = −log(IC50), IC50 molar
Method: The ability of compounds to inhibit SYK activity may be assessed using a variety of methods, including in vitro and in vivo assays. The following in vitro assay measures a test compound's ability to inhibit SYK-mediated phosphorylation of a FAM-labeled SYK-specific substrate (5FAM-KKKKEEIYFFFG-NH2).
SYK protein is prepared from cDNA encoding human spleen tyrosine kinase and is expressed in insect cells using a baculovirus expression vector. The cDNA (IMAGE: 3542895) is purchased from Open Biosystems. The SYK kinase domain (residues 356-635) is amplified via PCR and cloned into plasmid pFastBacl (Invitrogen) at BamHI/XbaI sites. Recombinant plasmid encoding Met-Ala-Lys-SYK(356-635)-HHHHHH is sequenced and transformed into E. coli DH10Bac strain. The recombinant bacmid DNA is isolated and transfected into Sf9 insect cells. Recombinant virus is harvested 72 h after transfection. High titer viral stock is prepared by infecting Sf9 cells at a multiplicity of infection (MOI) of approximately 0.01. A suspension of Sf9 cells (10 L) is infected with recombinant virus (MOI=5) and is incubated in a Wave Bioreactor (GE-Healthcare) for 48 h. The cells are harvested and stored at −80° C.
To purify the expressed protein, the frozen Sf9 cells (10 L) are broken into small (<1 cm) particles and suspended in a lysis buffer (300 mL) containing 20 mM Tris (pH 7.6), 0.25 mM TCEP, 100 mM NaCl, 5% glycerol and a protease inhibitor. The suspension is stirred at RT until completely thawed, lysed an additional 2-4 min on a rotary blade homogenizer, and then centrifuged at 4200 g for 1 h. Following centrifugation, the supernatant is poured through cheese cloth and combined with a nickel chelating resin (Probond Resin™, Invitrogen) which is pre-equilibrated in a wash buffer containing 10 mM Tris (pH 7.6), 0.25 mM TCEP, 300 mM NaCl, 5% glycerol, and 20 mM imidazole. The mixture is agitated for 3 h in a cold room and then centrifuged at 900 g for 10 min. The resin is dispersed in wash buffer (50 mL), centrifuged for 10 min at 900 g, re-dispersed in a small amount of wash buffer (5 mL), and then pour into a disposable Poly-Prep chromatography column, through which wash buffer is passed by gravity until no protein is observed in coomassie buffer (about 120 mL of wash buffer). An elution buffer (30 mL) containing 10 mM HEPES (pH 7.4), 150 mM NaCl, 10% glycerol, 5 mM DTT, and 400 mM imidazole is used to elute the SYK protein from the resin. The eluate is concentrated (5 mL) and further purified on a Superdex 200 column (1.2 mL/min for 160 min, 10 mM HEPES (pH 7.4), 10 mM NaCl, 10 mM MgCl, 0.1 mM EDTA, and 0.25 mM TCEP). The chromatographed fractions are run on SDS-PAGE and the requisite fractions are pooled and concentrated. Final delivery buffer is 10 mM HEPES (pH 7.4), 10 mM Methione, 150 mM NaCl, 10% glycerol, 5 mM DTT.
SYK inhibition is determined using a black 384 well plate format in buffer containing 50 mM HEPES, 10 mM NaCl, 10 mM MgCl2, 0.2 mM EDTA, 0.01% EDA (Brij®35), 1 mM DTT, and 0.1 mg/ml BSA at pH 7.3. Each test compound is prepared in DMSO using 2-fold serial dilutions for 11 data points, which are added to the buffer so that each dilution contains 3% DMSO. To each well is added 2 μL of 3 μM SFAM-KKKKEEIYFFFG-NH2 (in buffer), 2 μL of diluted test compound (3% DMSO in buffer), and 2 μL of 2.4 nM SYK and 45 μM ATP (in buffer). The reaction mixture is incubated at RT for 60 min, and quenched by adding 50 mM Hepes, 30 mM EDTA, 0.1% Triton X-100 (pH 7.3). To quantify the fluorescent-labeled substrate and product following reaction, the test plate is loaded on a Caliper LC-3000, which measures percent of conversion by microfluidic-based separation. Corresponding IC50 values are calculated by non-linear curve fitting of the compound concentrations and percent of inhibition to the standard IC50 equation and reported as pIC50, i.e., −log(IC50), where IC50 is molar concentration.

SMILES | IC50 [nM]
N[C@H]1CCCC[C@H]1Nc1nc(-c2cc3ncccc3s2)c2c(c1F)CNC2=O [Example 26, 6-((1R,2S)-2-Aminocyclohexylamino)-7-fluoro-4-(thieno[3,2-b]pyridin-2-yl)-1H-pyrrolo[3,4-c]pyridin-3(2H)-one] | 5.01
N[C@H]1COCC[C@H]1Nc1nc(-c2cc(F)cs2)c2c(c1F)CNC2=O [Example 27, 6-((3R,4R)-3-Aminotetrahydro-2H-pyran-4-ylamino)-7-fluoro-4-(4-fluorothiophene-2-yl)-1H-pyrrolo[3,4-c]pyridin-3(2H)-one] | 5.01
N[C@H]1CCCC[C@H]1Nc1nc(-c2cc(F)cs2)c2c(c1F)CNC2=O [Example 28, 6-((1R,2S)-2-Aminocyclohexylamino)-7-fluoro-4-(4-fluorothiophene-2-yl)-1H-pyrrolo[3,4-c]pyridin-3(2H)-one] | 1.58
Cn1ncc2sc(-c3nc(N[C@@H]4CCCC[C@@H]4N)c(F)c4c3C(=O)NC4)cc21 [Example 29, 6-((1R,2S)-2-Aminocyclohexylamino)-7-fluoro-4-(1-methyl-1H-thieno[3,2-c]pyrazol-5-yl)-1H-pyrrolo[3,4-c]pyridin-3(2H)-one] | 0.1
Cn1ncc2sc(-c3nc(N[C@@H]4CCOC[C@@H]4N)c(F)c4c3C(=O)NC4)cc21 [Example 30, 6-((3R,4R)-3-Aminotetrahydro-2H-pyran-4-ylamino)-7-fluoro-4-(1-methyl-1H-thieno[3,2-c]pyrazol-5-yl)-1H-pyrrolo[3,4-c]pyridin-3(2H)-one] | 0.1
Cc1nn(C)c2cc(-c3nc(N[C@@H]4CCCC[C@@H]4N)c(F)c4c3C(=O)NC4)sc12 [Example 31, 6-((1R,2S)-2-Aminocyclohexylamino)-4-(1,3-dimethyl-1H-thieno[3,2-c]pyrazol-5-yl)-7-fluoro-1H-pyrrolo[3,4-c]pyridin-3(2H)-one] | 0.126
Cc1nn(C)c2cc(-c3nc(N[C@@H]4CCOC[C@@H]4N)c(F)c4c3C(=O)NC4)sc12 [Example 32, 6-((3R,4R)-3-Aminotetrahydro-2H-pyran-4-ylamino)-4-(1,3-dimethyl-1H-thieno[3,2-c]pyrazol-5-yl)-7-fluoro-1H-pyrrolo[3,4-c]pyridin-3(2H)-one] | 0.2
Cc1c2sc(-c3nc(N[C@@H]4CCCC[C@@H]4N)c(F)c4c3C(=O)NC4)cc2nn1C [Example 33, 6-((1R,2S)-2-Aminocyclohexylamino)-4-(2,3-dimethyl-2H-thieno[3,2-c]pyrazol-5-yl)-7-fluoro-1H-pyrrolo[3,4-c]pyridin-3(2H)-one] | 0.631
Cc1c2sc(-c3nc(N[C@@H]4CCOC[C@@H]4N)c(F)c4c3C(=O)NC4)cc2nn1C [Example 34, 6-((3R,4R)-3-Aminotetrahydro-2H-pyran-4-ylamino)-4-(2,3-dimethyl-2H-thieno[3,2-c]pyrazol-5-yl)-7-fluoro-1H-pyrrolo[3,4-c]pyridin-3(2H)-one] | 1.26
N[C@H]1CCCC[C@H]1Nc1nc(-c2cc3n(c2)CCOC3)c2c(c1F)CNC2=O [Example 35, 6-((1R,2S)-2-Aminocyclohexylamino)-4-(3,4-dihydro-1H-pyrrolo[2,1-c][1,4]oxazin-7-yl)-7-fluoro-1H-pyrrolo[3,4-c]pyridin-3(2H)-one] | 10
Cc1nn(C)c2sc(-c3nc(N[C@@H]4CCCC[C@@H]4N)c(F)c4c3C(=O)NC4)cc12 [Example 36, 6-((1R,2S)-2-Aminocyclohexylamino)-4-(1,3-dimethyl-1H-thieno[2,3-c]pyrazol-5-yl)-7-fluoro-1H-pyrrolo[3,4-c]pyridin-3(2H)-one] | 0.126
Cc1nn(C)c2sc(-c3nc(N[C@@H]4CCOC[C@@H]4N)c(F)c4c3C(=O)NC4)cc12 [Example 37, 6-((3R,4R)-3-Aminotetrahydro-2H-pyran-4-ylamino)-4-(1,3-dimethyl-1H-thieno[2,3-c]pyrazol-5-yl)-7-fluoro-1H-pyrrolo[3,4-c]pyridin-3(2H)-one] | 0.316
CCn1cc(-c2nc(N[C@@H]3CCOC[C@@H]3N)c(F)c3c2C(=O)NC3)cn1 [Example 38, 6-((3R,4R)-3-Aminotetrahydro-2H-pyran-4-ylamino)-4-(1-ethyl-1H-pyrazol-4-yl)-7-fluoro-1H-pyrrolo[3,4-c]pyridin-3(2H)-one] | 20
CCOC(=O)c1ccn2cc(-c3nc(N[C@@H]4CCOC[C@@H]4N)c(F)c4c3C(=O)NC4)cc2c1 [Example 39, Ethyl 2-(6-((3R,4R)-3-Aminotetrahydro-2H-pyran-4-ylamino)-7-fluoro-3-oxo-2,3-dihydro-1H-pyrrolo[3,4-c]pyridin-4-yl)indolizine-7-carboxylate] | 2
N[C@H]1COCC[C@H]1Nc1nc(-c2cc3cc(C(=O)O)ccn3c2)c2c(c1F)CNC2=O [Example 40, 2-(6-((3R,4R)-3-Aminotetrahydro-2H-pyran-4-ylamino)-7-fluoro-3-oxo-2,3-dihydro-1H-pyrrolo[3,4-c]pyridin-4-yl)indolizine-7-carboxylic acid] | 0.2
N[C@H]1COCC[C@H]1Nc1nc(-c2cc3n(c2)CCC3=O)c2c(c1F)CNC2=O [Example 41, 6-((3R,4R)-3-Aminotetrahydro-2H-pyran-4-ylamino)-7-fluoro-4-(1-oxo-2,3-dihydro-1H-pyrrolizin-6-yl)-1H-pyrrolo[3,4-c]pyridin-3(2H)-one] | 20
Cc1cc(-c2nc(N[C@@H]3CCCC[C@@H]3N)c(F)c3c2C(=O)NC3)sn1 [Example 42, 6-((1R,2S)-2-Aminocyclohexylamino)-7-fluoro-4-(3-methylisothiazol-5-yl)-1H-pyaolo[3,4-c]pyridin-3(2H)-one] | 0.631
N[C@H]1CCCC[C@H]1Nc1nc(C#Cc2ccccc2)c2c(c1F)CNC2=O [Example 43, 6-((1R,2S)-2-Aminocyclohexylamino)-7-fluoro-4-(phenylethynyl)-1H-pyrrolo[3,4-c]pyridin-3(2H)-one] | 63.1
N[C@H]1COCC[C@H]1Nc1nc(C#Cc2ccccc2)c2c(c1F)CNC2=O [Example 44, 6-((3R,4R)-3-Aminotetrahydro-2H-pyran-4-ylamino)-7-fluoro-4-(phenylethynyl)-1H-pyrrolo[3,4-c]pyridin-3(2H)-one] | 63.1
N[C@H]1CCCC[C@H]1Nc1nc(/C=C/c2ccc(F)cc2)c2c(c1F)CNC2=O [Example 45, 6-((1R,2S)-2-Aminocyclohexylamino)-7-fluoro-4-(4-fluorostyryl)-1H-pyrrolo[3,4-c]pyridin-3(2H)-one] | 2.51
N[C@H]1COCC[C@H]1Nc1nc(/C=C/c2ccc(F)cc2)c2c(c1F)CNC2=O [Example 46, 6-((3R,4R)-3-Aminotetrahydro-2H-pyran-4-ylamino)-7-fluoro-4-(4-fluorostyryl)-1H-pyrrolo[3,4-c]pyridin-3(2H)-one] | 5.01
N[C@H]1CCCC[C@H]1Nc1nc(CCc2ccccc2)c2c(c1F)CNC2=O [Example 47, 6-((1R,2S)-2-Aminocyclohexylamino)-7-fluoro-4-phenethyl-1H-pyrrolo[3,4-c]pyridin-3 (2H)-one] | 100
N[C@H]1COCC[C@H]1Nc1nc(CCc2ccccc2)c2c(c1F)CNC2=O [Example 48] | 100
